Here are results for 3 compounds from patent US10172848B2, “Gap junction-enhancing agents for treatment of necrotizing enterocolitis and inflammatory bowel disease” (University of Pittsburgh—of the Commonwealth System of …, priority 2010, dated 2019).

The conditions of data set [1]: qualitative statement, no test described; cited from earlier work.
The test system of data set [2] is IEC-6 cells. In words: migration into a scraped wound. The class given is cell-based. Particulars: migration into a scraped wound over 20 hours, increasing PMA concentration, FIG. 10B. Here is the method:
(§1) FIG. 10A-B. (A) IEC-6 enterocytes were treated with the concentrations of phorbol myristate acetate (“PMA”) indicated for one hour and then evaluated for the extent of enterocyte gap junction communication by confocal based dye transfer. The untreated cells represent the 100% dye transfer. *p<0.05 versus untreated cells. (B) IEC-6 cells were treated with the concentration of PMA indicated and assessed for their ability to migrate into a scraped wound over 20 hours. *p<0.05 vs. untreated cells. Representative of two separate experiments.
(§2) IEC-6 enterocytes were treated with various concentrations of phorbol myristate acetate (“PMA”) for one hour and then evaluated for the extent of enterocyte gap junction communication by confocal based dye transfer. […] Further, IEC-6 cells were treated with the concentration of PMA indicated and assessed for their ability to migrate into a scraped wound over 20 hours.

Data set [3] concerns IEC-6 enterocytes. Briefly: enterocyte gap junction communication by confocal based dye transfer. Particulars: IEC-6 enterocytes treated with various concentrations of PMA for one hour; untreated cells = 100% dye transfer; FIG. 10A. The class given is cell-based. Here is the method: as §1, §2

Structures are written as SMILES. Square brackets hold non-standard residues; d marks the D form. Peptide text beside a SMILES is read from it. dHyp = O=C(O)[C@H]1C[C@H](O)CN1

On to `NCC(=O)N1C[C@H](NC(=O)c2ccccc2)C[C@H]1C(=O)O` [GAP-134, (2S,4R)-1-(2-aminoacetyl)-4-benzamido-pyrrolidine-2-carboxylic acid], for which the half-life result in data set [1] is reported as “shorter half-life than ZP123”.
`CCCCCCCCCCCCCC(=O)O[C@@H]1[C@@H](C)[C@@]2(O)[C@@H](C=C(CO)C[C@]3(O)C(=O)C(C)=C[C@@H]23)[C@@H]2C(C)(C)[C@]12OC(C)=O` [PMA, phorbol myristate acetate]: in data set [2], the “speed (rate) of enterocyte migration” value is reported as “the speed (rate) of enterocyte migration also increased”. Further, the “extent of gap junction communication (dye transfer)” value in data set [3] is given as “as concentrations of PMA increased, so did the extent of gap junction communication”.
On to `CC(=O)N[C@H](Cc1ccc(O)cc1)C(=O)N1CCC[C@@H]1C(=O)N1C[C@@H](O)C[C@@H]1C(=O)NCC(=O)N[C@H](C)C(=O)NCC(N)=O` [Rotigaptide, (2R, 4S)-1-[(2R)-1-[(2R)-2-acetamido-3-(4-hydroxyphenyl)propanoyl]pyrrolidine-2-carbonyl]-N-[2-[[(2R)-1-[(2-amino-2-oxoethyl)amino]-1-oxopropan-2-yl]amino]-2-oxoethyl]-4-hydroxypyrrolidine-2-carboxamide] (Ac-[dY][dP][dHyp]G[dA]G-NH2), for which, in data set [1], the half-life result is listed as “long half-life” and the stability result is reported as “stable”.
